Test results taken from patent publication US20070010402A1, “Novel herbicides, usage thereof, novel thienopyrimidine derivatives, intermediates of the same, and process for production thereof” (NIHON NOHYAKU CO., LTD.,, priority 2002, published 2007).

Tests used:
Assay type in all cases: in vivo
[1] = test system: Echinochloa oryzicola; assay: Submerged foliar treatment test (Test Example 3); conditions: water depth 3 cm, cotyledon to 1-leaf stage, wettable powder, active ingredient 10 g/a, 28th day from the treatment
Experimental: (§1) The herbicidal effect was evaluated in terms of herbicidal rate obtained from the following equation: Herbicidal rate (%)=[1−(Weight of weeds above the ground in a treated plot)/(Weight of weeds above the ground in a non-treated plot)]×100
(§2) and was expressed by herbicidal index according to the following criteria.
(§3) Alluvial soil from a paddy field was put in a resin-made vat having an area of 200 cm^2. After fertilization, seeds of Echinochloa oryzicola, Rotala indica and Scirpus juncoides were cast on the soil and uniformly covered with the soil, and water was poured onto the soil to keep a water depth of 3 cm. Then, cultivation was continued in a greenhouse, and when the weeds to be tested reached the cotyledon stage to 1-leaf stage, the wettable powder obtained in Formulation Example 1 was diluted with water and a predetermined amount thereof was added dropwise uniformly to the weeds by means of a pipette to give 10 g of the active ingredient per an are. Thereafter, cultivation was further continued in the greenhouse, and the herbicidal effect was examined on the 28th day from the treatment. The results obtained are shown in Table 9 (the compound numbers in Table 9 correspond to those in Tables 1 to 6).

[2] = test system: Rotala indica; assay: Submerged foliar treatment test (Test Example 3); conditions: water depth 3 cm, cotyledon to 1-leaf stage, wettable powder, active ingredient 10 g/a, 28th day from the treatment
Experimental: as §1, §2, §3

[3] = test system: Scirpus juncoides; assay: Submerged foliar treatment test (Test Example 3); conditions: water depth 3 cm, cotyledon to 1-leaf stage, wettable powder, active ingredient 10 g/a, 28th day from the treatment
Experimental: as §1, §2, §3

[4] = test system: Brassica juncea; assay: Field foliar treatment test (Test Example 1); conditions: foliar spray at 1.0- to 2.0-leaf stage, wettable powder, active ingredient 10 g/a, 21st day from the treatment
Experimental: (§4) Alluvial soil from a field was put in a resin-made vat having an area of 200 cm^2. After fertilization, the seeds of Echinochloa crus-galli, Brassica juncea, and Ipomoea purpurea were cast on the soil and uniformly covered with the soil. Then, cultivation was continued in a greenhouse, and when the weeds to be tested reached the 1.0- to 2.0-leaf stage, the wettable powder obtained in Formulation Example 1 was diluted with water and a predetermined amount thereof was sprayed uniformly to the weeds by means of a small-sized power pressure spray to give 10 g of the active ingredient per an are. Thereafter, cultivation was further continued in the greenhouse, and the herbicidal effect was examined on the 21st day from the treatment. The results obtained are shown in Table 7 (the compound numbers in Table 7 correspond to those in Table 1 to 6). The herbicidal effect was evaluated in terms of herbicidal rate obtained from the following equation: Herbicidal rate (%)=[1−(Weight of weeds above the ground in a treated plot)/(Weight of weeds above the ground in a non-treated plot)]×100 and was expressed by herbicidal index according to the following criteria. [table]

[5] = test system: Echinochloa crus-galli; assay: Field foliar treatment test (Test Example 1); conditions: foliar spray at 1.0- to 2.0-leaf stage, wettable powder, active ingredient 10 g/a, 21st day from the treatment
Experimental: as §4

[6] = test system: Ipomoea purpurea; assay: Field foliar treatment test (Test Example 1); conditions: foliar spray at 1.0- to 2.0-leaf stage, wettable powder, active ingredient 10 g/a, 21st day from the treatment
Experimental: as §4

| Compound | Herbicidal effect Echinochloa oryzicola (herbicidal index) [1] | Herbicidal effect Rotala indica (herbicidal index) [2] | Herbicidal effect Scirpus juncoides (herbicidal index) [3] | Herbicidal effect Brassica juncea (herbicidal index) [4] | Herbicidal effect Echinochloa crus-galli (herbicidal index) [5] | Herbicidal effect Ipomoea purpurea (herbicidal index) [6] |
| --- | --- | --- | --- | --- | --- | --- |
| CC(=O)OC1COCC1Oc1nc(-c2cccc(C(F)(F)F)c2)c2cc(C)sc2n1 (mixture of isomers) [6-188] | 5 (91 to 100) | 5 (91 to 100) | 4 (71 to 90) |  |  |  |
| Cc1cc2c(-c3cccc(OC(F)(F)F)c3)nc(Cl)nc2s1 [5-9] | 5 (91 to 100) | 5 (91 to 100) | 4 (71 to 90) |  |  |  |
| CCCOc1nc(-c2cccc(C(F)(F)F)c2)c2cc(CC)sc2n1 [6-8] | 5 (91 to 100) | 4 (71 to 90) | 4 (71 to 90) |  |  |  |
| CCOc1nc(-c2cccc(C(F)(F)F)c2)c2cc(C)sc2n1 [6-24] | 5 (91 to 100) | 5 (91 to 100) | 4 (71 to 90) |  |  |  |
| CCOc1nc(-c2cccc(OC(F)(F)F)c2)c2cc(C)sc2n1 [6-34] | 5 (91 to 100) | 5 (91 to 100) | 5 (91 to 100) |  |  |  |
| Cc1cc2c(-c3cccc(OC(F)F)c3)nc(OC(C)C)nc2s1 [6-41] | 5 (91 to 100) | 5 (91 to 100) | 4 (71 to 90) |  |  |  |
| CCCCCOc1nc(-c2ccccc2C)c2cc(C)sc2n1 [6-47] | 4 (71 to 90) | 3 (51 to 70) | 1 (6 to 30) |  |  |  |
| CCOc1nc(-c2sccc2C)c2cc(C)sc2n1 [6-50] | 3 (51 to 70) | 4 (71 to 90) | 3 (51 to 70) |  |  |  |
| CCCOc1nc(-c2cccc(Cl)c2)c2cc(C)sc2n1 [6-52] | 5 (91 to 100) | 5 (91 to 100) | 3 (51 to 70) |  |  |  |
| Cc1cc2c(-c3cccc(Cl)c3)nc(OC3CCCC3)nc2s1 [6-54] | 5 (91 to 100) | 5 (91 to 100) | 4 (71 to 90) |  |  |  |
| CCCOc1nc(-c2ccccc2Cl)c2cc(C)sc2n1 [6-56] | 5 (91 to 100) | 5 (91 to 100) | 4 (71 to 90) |  |  |  |
| Cc1cc2c(-c3cccc(Br)c3)nc(OCC(C)(C)C)nc2s1 [6-60] | 5 (91 to 100) | 5 (91 to 100) | 5 (91 to 100) |  |  |  |
| CCCOc1nc(-c2cccc(OC)c2)c2cc(C)sc2n1 [6-62] | 5 (91 to 100) | 5 (91 to 100) | 5 (91 to 100) |  |  |  |
| Cc1cc2c(-c3cccc(C(F)(F)F)c3)nc(OC(C)C(C)C)nc2s1 (stereo not drawn) [6-72] | 5 (91 to 100) | 5 (91 to 100) | 3 (51 to 70) |  |  |  |
| Cc1cc2c(-c3cccc(SC(F)(F)F)c3)nc(OC3CCCC3)nc2s1 [6-86] | 5 (91 to 100) | 5 (91 to 100) | 4 (71 to 90) |  |  |  |
| Cc1cc2c(-c3cccc(SC(F)(F)F)c3)nc(OCC(F)F)nc2s1 [6-116] | 5 (91 to 100) | 5 (91 to 100) | 4 (71 to 90) |  |  |  |

| Compound | Herbicidal effect Echinochloa oryzicola (herbicidal index) [1] | Herbicidal effect Rotala indica (herbicidal index) [2] | Herbicidal effect Scirpus juncoides (herbicidal index) [3] | Herbicidal effect Brassica juncea (herbicidal index) [4] | Herbicidal effect Echinochloa crus-galli (herbicidal index) [5] | Herbicidal effect Ipomoea purpurea (herbicidal index) [6] |
| --- | --- | --- | --- | --- | --- | --- |
| Cc1cc2c(-c3cccc(SC(F)F)c3)nc(OCC(F)(F)F)nc2s1 [6-127] | 5 (91 to 100) | 5 (91 to 100) | 4 (71 to 90) |  |  |  |
| Cc1cc2c(-c3cccc(C(F)(F)F)c3)nc(Oc3ccccc3)nc2s1 [6-146] | 4 (71 to 90) | 5 (91 to 100) | 2 (31 to 50) |  |  |  |
| Cc1cc2c(-c3cccc(C(F)(F)F)c3)nc(OS(=O)(=O)CCl)nc2s1 [6-149] | 5 (91 to 100) | 5 (91 to 100) | 4 (71 to 90) |  |  |  |
| Cc1cc2c(-c3cccc(C(F)(F)F)c3)nc(OS(=O)(=O)CCCCl)nc2s1 [6-157] | 5 (91 to 100) | 5 (91 to 100) | 4 (71 to 90) |  |  |  |
| Cc1cc2c(-c3cccc(C(F)(F)F)c3)nc(OS(=O)(=O)N(C)C)nc2s1 [6-160] | 5 (91 to 100) | 5 (91 to 100) | 4 (71 to 90) |  |  |  |
| Cc1cc2c(-c3cccc(SC(F)(F)F)c3)nc(OS(C)(=O)=O)nc2s1 [6-164] | 5 (91 to 100) | 5 (91 to 100) | 4 (71 to 90) |  |  |  |
| Cc1cc2c(-c3cccc(C(F)(F)F)c3)nc(N(C)C)nc2s1 [6-169] | 5 (91 to 100) | 5 (91 to 100) | 2 (31 to 50) |  |  |  |
| Cc1cc2c(-c3cccc(C(F)(F)F)c3)nc(S(C)(=O)=O)nc2s1 [6-174] | 1 (6 to 30) | 5 (91 to 100) | 3 (51 to 70) |  |  |  |
| Cc1cc2c(-c3ccccc3C(F)(F)F)nc(-n3ccnc3)nc2s1 [6-191] | 5 (91 to 100) | 5 (91 to 100) | 3 (51 to 70) |  |  |  |
| Cc1cc2c(-n3ccc(C(F)(F)F)n3)nc(-n3ccc(C(F)(F)F)n3)nc2s1 [6-200] | 3 (51 to 70) | 5 (91 to 100) | 3 (51 to 70) |  |  |  |
| Cc1cc2c(Oc3cccc(C(F)(F)F)c3)nc(-n3ccc(C(F)(F)F)n3)nc2s1 [6-201] | 5 (91 to 100) | 5 (91 to 100) | 3 (51 to 70) |  |  |  |
| Cc1cc2c(-c3cccc(C)c3C)nc(OCC(F)(F)F)nc2s1 [6-245] |  |  |  | 5 (91 to 100) | 4 (71 to 90) | 5 (91 to 100) |
| Cc1cc2c(-c3ccccc3C(F)(F)F)nc(OCC(F)(F)C(F)F)nc2s1 [6-249] |  |  |  | 5 (91 to 100) | 4 (71 to 90) | 5 (91 to 100) |
| Cc1cc2c(-c3ccccc3OC(F)(F)F)nc(OCC(F)(F)F)nc2s1 [6-251] |  |  |  | 5 (91 to 100) | 5 (91 to 100) | 5 (91 to 100) |
| Cc1cc2c(-c3ccccc3C(F)(F)F)nc(Cl)nc2s1 [Compound No. 5-3] | 5 (91 to 100) | 5 (91 to 100) | 3 (51 to 70) |  |  |  |
| CCCOc1nc(-c2ccc(F)c(C(F)(F)F)c2)c2cc(C)sc2n1 [Compound No. 6-29, 4-[4-fluoro-3-(trifluoromethyl)phenyl]-6-methyl-2-propoxythieno[2,3-d]pyrimidine] |  |  |  | 4 (71 to 90) | 4 (71 to 90) | 5 (91 to 100) |
